Where two headings read alike, the source gives them in different places.
What was measured:
[1] = 50% lethal dose (LD50 acute) in mice; type: in vivo, mice (male B6 D2 F1 /OLA); details: mouse, in vivo, ip, mortality before the 8th day
Experimental: (§1) Male B6 D2 F1 /OLA mice are inoculated intraperitoneally with 10^5 cells of the leukemia strain L1210 on day 0 and divided into groups. The first is the control group and the others are treated with the drugs at different concentrations on days 1, 5 and 9. The compounds are injected as a suspension in olive oil. The mortality of the animals is observed and the autopsy indicates whether it is due to leukemia or to the toxic action of the products.
(§2) The 50% lethal dose (LD50 acute) is determined by taking into account the mortality which has occurred before the 8th day among the animals treated on day D:1. The survival median of the treated animals (mT) and the control animals (mC) was established and Wilcoxon's non-parametric statistical test was applied. The results are considered positive if the index I [formula] is greater than 125 and the test Is significant at p≤0.05.

mice = test: 50% lethal dose (LD50 acute) in mice; type: in vivo, mice (male B6 D2 F1 /OLA); details: i.p.
Experimental: as §1, §2

leukemia strain L1210 = test: Antitumoral activity on leukemia L1210 i.p. in mice, unoxidized compounds (ICIG); type: in vivo, mice (male B6 D2 F1 /OLA); details: for survival rate after 60 days: at different doses; for I indices (in words): i.p., leukemia L1210
Experimental: The oncostatic activity of these nitrosated derivatives was determined at the I.C.I.G. in VILLEJUIF (Department of Prof. MATHE) following a described experimental protocol: M. HAYAT et al , Cancer Chemother. Pharmacol., 1979, 3, 217-221; R. MARAL et al., Eur. J. Med. Chem., submitted for publication.
as §1, §2

Glioma 26 = system: Glioma 26; set-up: key: N.S.: Not significant; .infin.: 50% more of the treated animals are cure; details: days 1, 5 and 9, cited from earlier work
[2] = Solubility in solvents allowing intravenous administration; type: physicochemical; details: solvents which allow intravenous administration
[3] = system: Carcinoma of the colon (colon 26); set-up: key: N.S.: Not significant; .infin.: 50% more of the treated animals are cure; details: days 1, 5 and 9, cited from earlier work
[4] = system: Mammary adenocarcinoma TM2; set-up: key: N.S.: Not significant; .infin.: 50% more of the treated animals are cure; details: days 1, 5 and 9, cited from earlier work
[5] = system: Lewis pulmonary carcinoma; set-up: key: N.S.: Not significant; .infin.: 50% more of the treated animals are cure; details: days 1, 5 and 9, cited from earlier work
Leukemia L 1210 [6] = details: days 1, 5 and 9, cited from earlier work
leukemia L 1210 [7] = test: Antitumoral activity on leukemia L 1210 grafted i.p. in mice, sulfoxide and sulfone mixtures (Unit 71 of INSERM); type: in vivo, mice (B6 D2 F1 /IFFA CREDO); details: D1, D5, D9
Experimental: This activity was also studied on mice carrying leukemia L 1210 grafted i.p. This experimental tumor is the one most frequently used in the primary screening of cytostatic drugs.
These tests were conducted in parallel in two laboratories: at Unit 71 of the Institut National de la Sante et de la Recberche Mediecale (INSERM), ClermontFerrand, and at the Institut de Cancerologie et d' Immunogenetique (ICIG), Villejuif.
The antitumoral efficacy of the products according to the invention was compared with that of CNCC.
On day D:0, three-month-old male B6 D2 F1 mice received 10^5 cells of the leukemia strain L 1210 by intraperitoneal administration. The animals are divided up into groups of 8 to 10 animals for the control groups and 6 to 8 animals for the treated groups. On days D:1, D:5 and D:9, the animals receive the treatment at different doses by intraperitoneal or intravenous administration. The CNCC is administered as a suspension in olive oil. The products according to the invention are administered in physiological serum. The mortality is recorded every day. The survival median was determined for the treated animals and the control animals. The results are considered to be positive if the index I= [formula] is greater than 125.
The value .infin. means that 50% to 100% of the animals have survived to day D:90.
The cytostatic activity oi the products according to the invention on leukemia L 1210 was evaluated on B6 D2 F1 /IFFA CREDO mice according to the protocol described previously.
The following were administered intraperitoneally (i.p.): the mixture A1 A2 in the following proportions: A1 (70%) and A2 (30%), or the mixture B1 B2 in the same proportions, or CNCC at the following doses: 10 mg/kg, 20 mg/kg, 30 mg/kg, 40 mg/kg and 50 mg/kg. The results are given in Table II and invite the following remarks: […]

[8] = system: types of tumor listed in Table I; details: cited from earlier work
Fibrosarcoma I.C.I.G. C1 = system: Fibrosarcoma I.C.I.G. C1; set-up: key: N.S.: Not significant; .infin.: 50% more of the treated animals are cure; details: days 1, 5 and 9, cited from earlier work
Melanocarcinoma B 16 = details: days 1, 5 and 9, cited from earlier work
Ovarian M 555 = system: Ovarian M 555; set-up: key: N.S.: Not significant; .infin.: 50% more of the treated animals are cure; details: days 1, 5 and 9, cited from earlier work

O=NN(CCCl)C(=O)NCCSC(c1ccccc1)(c1ccccc1)c1ccccc1 [(9), S-Trityl-N-[N-(2-chloroethyl)-N-nitrosocarbamoyl]cysteamine]
LD50 [1]: > 625 mg/kg
toxicity (in words) (mice): not toxic

CSCCNC(=O)N(CCCl)N=O [(3), S-methyl-N-[N-(2-chloroethyl)-N-nitrosocarbamoyl] cysteamine]
LD50 [1]: 19 to 25 mg/kg
index I (survival median treated vs control) (leukemia strain L1210; 5 mg/kg i.p., days 1,5,9): .infin. (50% or more of the animals survive to day +60)
% of animals surviving to 60 days (leukemia strain L1210; 12.5 mg/kg i.p., days 1,5,9): 100%
index I (survival median treated vs control) (leukemia strain L1210; 12.5 mg/kg i.p., days 1,5,9): .infin. (50% or more of the animals survive to day +60)
% of animals surviving to 60 days (leukemia strain L1210; 15 mg/kg i.p., days 1,5,9): 87%
survival rate after 60 days (leukemia strain L1210): 100%
I indices (in words) (leukemia strain L1210): at infinity

O=NN(CCCl)C(=O)NCCS [(1), N-[N-(2-Chloroethyl)-N-nitrosocarbamoyl]cysteamine]
LD50 [1]: 19 to 25 mg/kg
% of animals surviving to 60 days (leukemia strain L1210; 5 mg/kg i.p., days 1,5,9): 100%
index I (survival median treated vs control) (leukemia strain L1210; 5 mg/kg i.p., days 1,5,9): .infin. (50% or more of the animals survive to day +60)
% of animals surviving to 60 days (leukemia strain L1210; 10 mg/kg i.p., days 1,5,9): 100%
index I (survival median treated vs control) (leukemia strain L1210; 10 mg/kg i.p., days 1,5,9): .infin. (50% or more of the animals survive to day +60)
% of animals surviving to 60 days (leukemia strain L1210; 12.5 mg/kg i.p., days 1,5,9): 100%
index I (survival median treated vs control) (leukemia strain L1210; 12.5 mg/kg i.p., days 1,5,9): .infin. (50% or more of the animals survive to day +60)
% of animals surviving to 60 days (leukemia strain L1210; 15 mg/kg i.p., day +1): 100%
index I (survival median treated vs control) (leukemia strain L1210; 15 mg/kg i.p., day +1): .infin. (50% or more of the animals survive to day +60)
survival rate after 60 days (leukemia strain L1210): 100%
I indices (in words) (leukemia strain L1210): at infinity

O=NN(CCCl)C(=O)NCCSSCCN(N=O)C(=O)NCCCl [CNCC, N[N-(2-chloroethyl) N-nitrosocarbamoyl]-N'-[N(2-chloroethyl)carbamoyl] N'-nitrosocystamine]
Increase in the survival time (I.L.S.: T/C × 100) (Glioma 26; 30 mg/kg i.p.): 200
solubility (in words) [2]: insolubility of this compound in the solvents which allow intravenous administration
Increase in the survival time (I.L.S.: T/C × 100) ([3]; 30 mg/kg i.p.): .infin. (50% more of the treated animals are cure)
Increase in the survival time (I.L.S.: T/C × 100) ([4]; 30 mg/kg i.p.): 185
Increase in the survival time (I.L.S.: T/C × 100) ([5]; 30 mg/kg i.p.): .infin. (50% more of the treated animals are cure)
Increase in the survival time (I.L.S.: T/C × 100) (Leukemia L 1210 [6]; 30 mg/kg i.p.): .infin. (50% more of the treated animals are cure)
T/C × 100 (leukemia L 1210 [7]; 10 mg/kg i.p.): 250
number of animals surviving to 90 days (leukemia L 1210 [7]; 10 mg/kg i.p.): 0/6
T/C × 100 (leukemia L 1210 [7]; 20 mg/kg i.p.): .infin. (50 to 100% of the animals surviving to 90 days)
number of animals surviving to 90 days (leukemia L 1210 [7]; 20 mg/kg i.p.): 6/6
T/C × 100 (leukemia L 1210 [7]; 30 mg/kg i.p.): .infin. (50 to 100% of the animals surviving to 90 days)
number of animals surviving to 90 days (leukemia L 1210 [7]; 30 mg/kg i.p.): 6/6
T/C × 100 (leukemia L 1210 [7]; 40 mg/kg i.p.): .infin. (50 to 100% of the animals surviving to 90 days)
number of animals surviving to 90 days (leukemia L 1210 [7]; 40 mg/kg i.p.): 3/6
T/C × 100 (leukemia L 1210 [7]; 50 mg/kg i.p.): 125
number of animals surviving to 90 days (leukemia L 1210 [7]; 50 mg/kg i.p.): 0/6
activity against types of tumor (in words) [8]: active against all the types of tumor listed in Table I, with the exception of fibrosarcoma I.C.I.G
activity compared with the other chloroethylnitrosoureas (in words) [8]: quantitatively greater than those observed with the other chloroethylnitrosoureas
Increase in the survival time (I.L.S.: T/C × 100) (Fibrosarcoma I.C.I.G. C1; 30 mg/kg i.p.): N.S.
Increase in the survival time (I.L.S.: T/C × 100) (Melanocarcinoma B 16; 30 mg/kg i.p.): 200
Increase in the survival time (I.L.S.: T/C × 100) (Ovarian M 555; 30 mg/kg i.p.): > 254

CC1(C)O[C@@H]2[C@@H](COC(=O)c3ccc([N+](=O)[O-])cc3)OC(NC(=O)N(CCCl)N=O)[C@@H]2O1 (stereo partly drawn) [R.F.C.N.U., 1-(2-chloroethyl)-3-[1'-(5'-pnitrobenzoyl 2', 3'-isopropylidene)alphabeta D-ribofuranosyl]-1-nitrosourea]
Increase in the survival time (I.L.S.: T/C × 100) (Glioma 26; 20 mg/kg i.p.): N.S.
Increase in the survival time (I.L.S.: T/C × 100) ([3]; 20 mg/kg i.p.): N.S.
Increase in the survival time (I.L.S.: T/C × 100) ([4]; 20 mg/kg i.p.): N.S.
Increase in the survival time (I.L.S.: T/C × 100) ([5]; 20 mg/kg i.p.): N.S.
Increase in the survival time (I.L.S.: T/C × 100) (Leukemia L 1210 [6]; 20 mg/kg i.p.): 167
Increase in the survival time (I.L.S.: T/C × 100) (Fibrosarcoma I.C.I.G. C1; 20 mg/kg i.p.): .infin. (50% more of the treated animals are cure)
Increase in the survival time (I.L.S.: T/C × 100) (Melanocarcinoma B 16; 20 mg/kg i.p.): 144
Increase in the survival time (I.L.S.: T/C × 100) (Ovarian M 555; 20 mg/kg i.p.): N.S.

— US5001158A, “Nitrosoureas compounds preparation thereof and utilization thereof in anticancerous” (Centre National de la Recherche Scientifique, priority 1990, dated 1991)
